Tested on: MV-4-11 cells
Assay: Gene expression microarray analysis (Affymetrix PrimeView) and GSEA
Format: cell-based, human
Design: RFU PODN (11730768_x_at) / Fold change /veh PODN (11730768_x_at) / RFU LINC00158 (11744669_a_at) / Fold change /veh LINC00158 (11744669_a_at) / RFU DUSP10 (11751237_a_at) / Fold change /veh DUSP10 (11751237_a_at) / RFU ID3 (11757404_x_at) / Fold change /veh ID3 (11757404_x_at) / RFU PLEKHG5 (11737974_s_at) / Fold change /veh PLEKHG5 (11737974_s_at) / RFU LRRC4B (11730491_at) / Fold change /veh LRRC4B (11730491_at) / RFU GIMAP4 (11747438_a_at) / Fold change /veh GIMAP4 (11747438_a_at) / RFU KRT8 (11758183_x_at) / Fold change /veh KRT8 (11758183_x_at) / RFU CNN1 (11734310_a_at) / Fold change /veh CNN1 (11734310_a_at) / RFU VPS37D (11726825_at) / Fold change /veh VPS37D (11726825_at) / RFU C10orf10 (11716522_x_at) / Fold change /veh C10orf10 (11716522_x_at) / RFU KIR2DL2 /// KIR2DL4 /// KIR2DL5A /// KIR2DL5B /// KIR2DS1 /// KIR2DS2 /// KIR2DS3 /// KIR2DS4 /// KIR3DL3 /// KIR3DL3 /// KIR3DS1 (11738374_at) / Fold change /veh KIR2DL2 /// KIR2DL4 /// KIR2DL5A /// KIR2DL5B /// KIR2DS1 /// KIR2DS2 /// KIR2DS3 /// KIR2DS4 /// KIR3DL3 /// KIR3DL3 /// KIR3DS1 (11738374_at) / RFU C1QL1 (11718748_at) / Fold change /veh C1QL1 (11718748_at) / RFU TMPRSS4 (11747572_a_at) / Fold change /veh TMPRSS4 (11747572_a_at) / RFU HAMP (11756126_x_at) / Fold change /veh HAMP (11756126_x_at) / RFU RNFT2 (11725882_a_at) / Fold change /veh RNFT2 (11725882_a_at) / RFU NR4A2 (11747474_a_at) / Fold change /veh NR4A2 (11747474_a_at) / RFU ABCC12 (11746883_a_at) / Fold change /veh ABCC12 (11746883_a_at) / RFU TMEM136 (11760407_x_at) / Fold change /veh TMEM136 (11760407_x_at) / RFU CLDN22 /// WWC2 (11732394_at) / Fold change /veh CLDN22 /// WWC2 (11732394_at) / RFU HLA-DPB1 (11760878_x_at) / Fold change /veh HLA-DPB1 (11760878_x_at) / RFU SPINT1 (11716480_a_at) / Fold change /veh SPINT1 (11716480_a_at) / RFU GAP43 (11754022_s_at) / Fold change /veh GAP43 (11754022_s_at) / RFU A4GNT (11735810_at) / Fold change /veh A4GNT (11735810_at) / RFU PRB3 (11715151_x_at) / Fold change /veh PRB3 (11715151_x_at) / RFU TUBB4B (11761932_at) / Fold change /veh TUBB4B (11761932_at) / RFU CAPN14 (11732068_a_at) / Fold change /veh CAPN14 (11732068_a_at) / RFU TMCC2 (11721928_a_at) / Fold change /veh TMCC2 (11721928_a_at) / RFU IRGQ (11745062_a_at) / Fold change /veh IRGQ (11745062_a_at) / RFU FAM174B (11720279_a_at) / Fold change /veh FAM174B (11720279_a_at) / RFU TMPRSS4 (11748680_a_at) / Fold change /veh TMPRSS4 (11748680_a_at) / RFU FAM212B (11763350_a_at) / Fold change /veh FAM212B (11763350_a_at) / RFU PLEKHG5 (11743358_a_at) / Fold change /veh PLEKHG5 (11743358_a_at) / RFU ZSCAN30 (11745921_a_at) / Fold change /veh ZSCAN30 (11745921_a_at) / RFU CMKLR1 (11741424_a_at) / Fold change /veh CMKLR1 (11741424_a_at) / RFU LOC101060620 /// MAPK8IP1 (11723275_at) / Fold change /veh LOC101060620 /// MAPK8IP1 (11723275_at) / RFU SPTSSB (11747773_x_at) / Fold change /veh SPTSSB (11747773_x_at) / RFU PRSS12 (11739890_at) / Fold change /veh PRSS12 (11739890_at) / RFU BIN1 (11741810_x_at) / Fold change /veh BIN1 (11741810_x_at) / RFU WNT11 (11732464_a_at) / Fold change /veh WNT11 (11732464_a_at) / RFU C10orf10 (11716521_a_at) / Fold change /veh C10orf10 (11716521_a_at) / RFU C5orf56 (11738089_at) / Fold change /veh C5orf56 (11738089_at) / RFU CYB561 (11721691_x_at) / Fold change /veh CYB561 (11721691_x_at) / RFU ANKRD19P (11752326_a_at) / Fold change /veh ANKRD19P (11752326_a_at) / RFU OR2T12 /// OR2T33 /// OR2T8 (11738714_s_at) / Fold change /veh OR2T12 /// OR2T33 /// OR2T8 (11738714_s_at) / RFU VCAN (11748164_a_at) / Fold change /veh VCAN (11748164_a_at) / RFU JSRP1 (11732532_at) / Fold change /veh JSRP1 (11732532_at) / RFU KRTAP10-11 (11738290_x_at) / Fold change /veh KRTAP10-11 (11738290_x_at) / RFU MYO3A (11730013_a_at) / Fold change /veh MYO3A (11730013_a_at) / RFU EBF3 (11725865_a_at) / Fold change /veh EBF3 (11725865_a_at) / RFU CAMK2N1 (11719241_x_at) / Fold change /veh CAMK2N1 (11719241_x_at) / RFU C5orf56 (11738088_a_at) / Fold change /veh C5orf56 (11738088_a_at) / RFU OLFML3 (11715873_a_at) / Fold change /veh OLFML3 (11715873_a_at) / RFU LOC100653217 /// NTM (11731650_a_at) / Fold change /veh LOC100653217 /// NTM (11731650_a_at) / RFU MAPK11 (11762145_a_at) / Fold change /veh MAPK11 (11762145_a_at) / RFU FIZ1 (11724087_x_at) / Fold change /veh FIZ1 (11724087_x_at) / RFU OASL (11726364_x_at) / Fold change /veh OASL (11726364_x_at) / RFU SOX15 (11748057_x_at) / Fold change /veh SOX15 (11748057_x_at) / RFU CD79A (11719716_a_at) / Fold change /veh CD79A (11719716_a_at) / RFU HIST1H1D (11736915_at) / Fold change /veh HIST1H1D (11736915_at) / RFU CASKIN2 (11723855_a_at) / Fold change /veh CASKIN2 (11723855_a_at) / RFU LOC730098 (11760151_x_at) / Fold change /veh LOC730098 (11760151_x_at) / RFU OR4N2 (11742367_at) / Fold change /veh OR4N2 (11742367_at) / RFU PRRT2 (11749266_a_at) / Fold change /veh PRRT2 (11749266_a_at) / RFU SNX32 (11753110_a_at) / Fold change /veh SNX32 (11753110_a_at) / RFU CDHR5 (11726645_a_at) / Fold change /veh CDHR5 (11726645_a_at) / RFU RCAN1 (11760418_a_at) / Fold change /veh RCAN1 (11760418_a_at) / RFU FAM167A (11723789_a_at) / Fold change /veh FAM167A (11723789_a_at) / RFU FAM26E (11764081_at) / Fold change /veh FAM26E (11764081_at) / RFU ISYNA1 (11749810_s_at) / Fold change /veh ISYNA1 (11749810_s_at) / RFU ACY1 (11761880_at) / Fold change /veh ACY1 (11761880_at) / RFU 11764098_at / Fold change /veh 11764098_at / RFU SAMD14 (11745864_x_at) / Fold change /veh SAMD14 (11745864_x_at) / RFU NPB (11741838_a_at) / Fold change /veh NPB (11741838_a_at) / RFU TMPRSS6 (11731388_a_at) / Fold change /veh TMPRSS6 (11731388_a_at) / RFU KRTAP10-2 (11738614_at) / Fold change /veh KRTAP10-2 (11738614_at) / RFU ARHGAP8 /// PRR5-ARHGAP8 (11727945_x_at) / Fold change /veh ARHGAP8 /// PRR5-ARHGAP8 (11727945_x_at) / RFU KRTAP5-7 /// NADSYN1 (11734609_at) / Fold change /veh KRTAP5-7 /// NADSYN1 (11734609_at) / RFU RASL12 (11751679_a_at) / Fold change /veh RASL12 (11751679_a_at) / RFU CDKN2B (11736163_a_at) / Fold change /veh CDKN2B (11736163_a_at) / RFU PRF1 (11729649_at) / Fold change /veh PRF1 (11729649_at) / RFU, ZNF638 /// ZNF638-IT1 / Fold change vs veh, ZNF638 /// ZNF638-IT1 / RFU, PANK3 / Fold change vs veh, PANK3 / RFU, SH3YL1 / Fold change vs veh, SH3YL1 / RFU, ZEB2 / Fold change vs veh, ZEB2 / RFU, NRIP1 / Fold change vs veh, NRIP1 / RFU, PTTG1IP / Fold change vs veh, PTTG1IP / RFU, CAPN2 / Fold change vs veh, CAPN2 / RFU, MED14 / Fold change vs veh, MED14 / RFU, SNORA58 / Fold change vs veh, SNORA58 / RFU, C1orf63 / Fold change vs veh, C1orf63 / RFU, LRRFIP1 / Fold change vs veh, LRRFIP1 / RFU, NDUFAF7 / Fold change vs veh, NDUFAF7 / RFU, SLC12A2 / Fold change vs veh, SLC12A2 / RFU, IBTK / Fold change vs veh, IBTK / RFU, ESF1 / Fold change vs veh, ESF1 / Fold change vs veh, TMEM50B / RFU, TAOK1 / Fold change vs veh, TAOK1 / RFU, ACBD3 / Fold change vs veh, ACBD3 / RFU, TMA16 / Fold change vs veh, TMA16 / RFU, RWDD3 / Fold change vs veh, RWDD3 / RFU, BCAT1 / Fold change vs veh, BCAT1 / RFU, EDEM3 / Fold change vs veh, EDEM3 / RFU, TMEM33 / Fold change vs veh, TMEM33 / RFU, WDR75 / Fold change vs veh, WDR75 / RFU, AHCTF1 / Fold change vs veh, AHCTF1 / RFU, TFRC / Fold change vs veh, TFRC / RFU, ZDHHC17 / Fold change vs veh, ZDHHC17 / RFU, NOM1 / Fold change vs veh, NOM1 / RFU, ARL8B / Fold change vs veh, ARL8B / RFU, ZBTB11 / Fold change vs veh, ZBTB11 / RFU, TAMM41 / Fold change vs veh, TAMM41 / RFU, KIAA1704 /// LOC100996395 / Fold change vs veh, KIAA1704 /// LOC100996395 / RFU, ING1 / Fold change vs veh, ING1 / RFU, TRMT61B / Fold change vs veh, TRMT61B / RFU, FUBP3 / Fold change vs veh, FUBP3 / RFU, TP53 / Fold change vs veh, TP53 / RFU, TNKS2 / Fold change vs veh, TNKS2 / RFU, ZFP14 / Fold change vs veh, ZFP14 / RFU, ACTR2 / Fold change vs veh, ACTR2 / RFU, PPP3R1 / Fold change vs veh, PPP3R1 / RFU, PIK3R1 / Fold change vs veh, PIK3R1 / RFU, HNRNPA1 / Fold change vs veh, HNRNPA1 / RFU, RNF170 / Fold change vs veh, RNF170 / RFU, ZNF28 / Fold change vs veh, ZNF28 / RFU, RNGTT / Fold change vs veh, RNGTT / RFU, OGT / Fold change vs veh, OGT / RFU, BRD1 / Fold change vs veh, BRD1 / RFU, MARS / Fold change vs veh, MARS / RFU, ZNF655 / Fold change vs veh, ZNF655 / RFU, FAHD1 / Fold change vs veh, FAHD1 / RFU, BDP1 / Fold change vs veh, BDP1 / RFU, LRRCC1 / Fold change vs veh, LRRCC1 / RFU, ARID1A / Fold change vs veh, ARID1A / RFU, ZNF146 / Fold change vs veh, ZNF146 / RFU, ZNF330 / Fold change vs veh, ZNF330 / RFU, GPN3 / Fold change vs veh, GPN3 / RFU, C9orf123 / Fold change vs veh, C9orf123 / RFU, N4BP2L2 / Fold change vs veh, N4BP2L2 / RFU, ARFIP1 / Fold change vs veh, ARFIP1 / RFU, FAM179B / Fold change vs veh, FAM179B / RFU, BCL10 / Fold change vs veh, BCL10 / RFU, UHRF1BP1L / Fold change vs veh, UHRF1BP1L / RFU, BET1 / Fold change vs veh, BET1 / RFU, CNOT2 / Fold change vs veh, CNOT2 / RFU, ZNF268 / Fold change vs veh, ZNF268 / Fold change vs veh, ZNF507 / RFU, DGCR2 / Fold change vs veh, DGCR2 / RFU, WDSUB1 / Fold change vs veh, WDSUB1 / Fold change vs veh, HSP90B1 /// MIR3652 / RFU, ADSS / Fold change vs veh, ADSS / RFU, GK / Fold change vs veh, GK / RFU, ZNF148 / Fold change vs veh, ZNF148 / RFU, TAF9 / Fold change vs veh, TAF9 / RFU, SLC1A5 / Fold change vs veh, SLC1A5 / RFU, SLMO2 / Fold change vs veh, SLMO2 / RFU, ABCC4 / Fold change vs veh, ABCC4 / RFU, LOC101060439 /// RAP1B / Fold change vs veh, LOC101060439 /// RAP1B / RFU, RFX7 / Fold change vs veh, RFX7 / RFU, GTPBP10 / Fold change vs veh, GTPBP10 / RFU, CNEP1R1 / Fold change vs veh, CNEP1R1 / RFU, BIVM-ERCC5 /// ERCC5 / Fold change vs veh, BIVM-ERCC5 /// ERCC5 / RFU, ILF3 / Fold change vs veh, ILF3 / RFU 11762660_at / Fold change /veh 11762660_at / RFU VCAN (11757783_s_at) / Fold change /veh VCAN (11757783_s_at) / RFU DDX43 (11728927_at) / Fold change /veh DDX43 (11728927_at) / RFU KRT8 (11758188_x_at) / Fold change /veh KRT8 (11758188_x_at) / RFU NKD1 (11759106_at) / Fold change /veh NKD1 (11759106_at) / RFU SRD5A1 (11742802_a_at) / Fold change /veh SRD5A1 (11742802_a_at) / RFU TPSAB1 /// TPSB2 (11721975_s_at) / Fold change /veh TPSAB1 /// TPSB2 (11721975_s_at) / RFU GSTM3 (11746129_a_at) / Fold change /veh GSTM3 (11746129_a_at) / RFU IL23R (11737362_x_at) / Fold change /veh IL23R (11737362_x_at) / RFU TMEM51 (11727254_a_at) / Fold change /veh TMEM51 (11727254_a_at) / RFU PIWIL2 (11732686_x_at) / Fold change /veh PIWIL2 (11732686_x_at) / RFU ORM1 (11744905_x_at) / Fold change /veh ORM1 (11744905_x_at) / RFU CCDC152 (11743942_at) / Fold change /veh CCDC152 (11743942_at) / RFU ECM1 (11717891_a_at) / Fold change /veh ECM1 (11717891_a_at) / RFU IL23R (11748794_a_at) / Fold change /veh IL23R (11748794_a_at) / RFU TNFAIP8L3 (11732012_x_at) / Fold change /veh TNFAIP8L3 (11732012_x_at) / RFU MBOAT4 (11741988_at) / Fold change /veh MBOAT4 (11741988_at) / RFU 11764193_at / Fold change /veh 11764193_at / RFU TMEM53 (11763286_at) / Fold change /veh TMEM53 (11763286_at) / RFU MAGEB2 (11727129_at) / Fold change /veh MAGEB2 (11727129_at) / RFU TMEM200A (11744735_a_at) / Fold change /veh TMEM200A (11744735_a_at) / RFU CCDC152 (11751479_a_at) / Fold change /veh CCDC152 (11751479_a_at) / RFU FAM211A (11726209_a_at) / Fold change /veh FAM211A (11726209_a_at) / RFU RGS16 (11746705_a_at) / Fold change /veh RGS16 (11746705_a_at) / RFU VCAN (11755009_s_at) / Fold change /veh VCAN (11755009_s_at) / RFU RHOB (11743442_s_at) / Fold change /veh RHOB (11743442_s_at) / RFU RGS16 (11720943_a_at) / Fold change /veh RGS16 (11720943_a_at) / RFU RGS16 (11720944_at) / Fold change /veh RGS16 (11720944_at) / RFU, VPS4B / Fold change vs veh, VPS4B / RFU, CREB1 / Fold change vs veh, CREB1 / RFU, DNAJC13 / Fold change vs veh, DNAJC13 / RFU, GNAQ / Fold change vs veh, GNAQ / RFU, CDK5R1 / Fold change vs veh, CDK5R1 / RFU, ZRANB3 / Fold change vs veh, ZRANB3 / RFU, CUL4A / Fold change vs veh, CUL4A / RFU, CCNY / Fold change vs veh, CCNY / RFU, UFL1 / Fold change vs veh, UFL1 / RFU, COG3 / Fold change vs veh, COG3 / RFU, DIAPH2 / Fold change vs veh, DIAPH2 / RFU, SKA2 / Fold change vs veh, SKA2 / RFU, AFF3 / Fold change vs veh, AFF3 / RFU, LMF1 / Fold change vs veh, LMF1 / RFU, IPO11 / Fold change vs veh, IPO11 / RFU, DFFB / Fold change vs veh, DFFB / RFU, FOXP1 / Fold change vs veh, FOXP1 / RFU, CARD8 / Fold change vs veh, CARD8 / RFU, STRN3 / Fold change vs veh, STRN3 / RFU, ADK / Fold change vs veh, ADK / RFU, RASSF2 / Fold change vs veh, RASSF2 / RFU, WIPF1 / Fold change vs veh, WIPF1 / RFU, LARP1B / Fold change vs veh, LARP1B / RFU, RASA1 / Fold change vs veh, RASA1 / RFU, RB1 / Fold change vs veh, RB1 / RFU, PPFIA1 / Fold change vs veh, PPFIA1 / RFU, MAT2A / Fold change vs veh, MAT2A / RFU, CCT5 / Fold change vs veh, CCT5 / RFU, WDR92 / Fold change vs veh, WDR92 / RFU, CUX1 / Fold change vs veh, CUX1 / RFU, TTC7A / Fold change vs veh, TTC7A / RFU, TMEM135 / Fold change vs veh, TMEM135 / RFU, DEPTOR / Fold change vs veh, DEPTOR / RFU, CPM / Fold change vs veh, CPM / RFU, DNAJB6 / Fold change vs veh, DNAJB6 / RFU, CACNA2D3 / Fold change vs veh, CACNA2D3 / RFU, DTX4 / Fold change vs veh, DTX4 / RFU, TFCP2 / Fold change vs veh, TFCP2 / RFU, GMCL1 /// GMCL1P1 / Fold change vs veh, GMCL1 /// GMCL1P1 / RFU, AEBP2 / Fold change vs veh, AEBP2 / RFU, SNHG1 /// SNORD22 /// SNORD25 /// SNORD26 /// SNORD27 /// SNORD28 /// SNORD29 /// SNORD31 / Fold change vs veh, SNHG1 /// SNORD22 /// SNORD25 /// SNORD26 /// SNORD27 /// SNORD28 /// SNORD29 /// SNORD31 / Fold change (Aza/veh), C12orf56 (ProbeSet 11735607_a_at) / Fold change (ACY-1035/veh), C12orf56 (ProbeSet 11735607_a_at) / Fold change (Aza/veh), FGFR1OP (ProbeSet 11751329_s_at) / Fold change (ACY-1035/veh), FGFR1OP (ProbeSet 11751329_s_at) / Fold change (Aza/veh), VPS36 (ProbeSet 11739960_a_at) / Fold change (ACY-1035/veh), VPS36 (ProbeSet 11739960_a_at) / RFU SYPL1 (11715823_x_at) / Fold change /veh SYPL1 (11715823_x_at) / RFU IGFBP7 (11715501_s_at) / Fold change /veh IGFBP7 (11715501_s_at) / RFU REEP3 (11722064_at) / Fold change /veh REEP3 (11722064_at) / RFU IGLL1 (11728026_x_at) / Fold change /veh IGLL1 (11728026_x_at): dose or concentration left out as unconfirmed
Details: ProbeSet 11733108_at; LIST D

With Nc1ncn([C@@H]2O[C@H](CO)[C@@H](O)[C@H]2O)c(=O)n1 [azacitidine] as the compound, how does the “RFU, GNAQ” value read?
Its value is 233.19 RFU.
